Measured values taken from patent US11306092B2, “Amino indole compounds useful as TLR inhibitors” (BRISTOL-MYERS SQUIBB COMPANY, priority 2017, dated 2022).

Tests used:
Format in all cases: cell-based
[1] = target: T1, human TLR8 (Homo sapiens, UniProt Q9NR97); assay: TLR8 inhibition reporter assay (HEK-Blue SEAP reporter); settings: HEK-Blue cells overexpressing human TLR8; R848 15.9 μM; 22 hour incubation
T1 construct: host or cells: HEK-Blue cells
T1 sequence (Q9NR97 27-1041): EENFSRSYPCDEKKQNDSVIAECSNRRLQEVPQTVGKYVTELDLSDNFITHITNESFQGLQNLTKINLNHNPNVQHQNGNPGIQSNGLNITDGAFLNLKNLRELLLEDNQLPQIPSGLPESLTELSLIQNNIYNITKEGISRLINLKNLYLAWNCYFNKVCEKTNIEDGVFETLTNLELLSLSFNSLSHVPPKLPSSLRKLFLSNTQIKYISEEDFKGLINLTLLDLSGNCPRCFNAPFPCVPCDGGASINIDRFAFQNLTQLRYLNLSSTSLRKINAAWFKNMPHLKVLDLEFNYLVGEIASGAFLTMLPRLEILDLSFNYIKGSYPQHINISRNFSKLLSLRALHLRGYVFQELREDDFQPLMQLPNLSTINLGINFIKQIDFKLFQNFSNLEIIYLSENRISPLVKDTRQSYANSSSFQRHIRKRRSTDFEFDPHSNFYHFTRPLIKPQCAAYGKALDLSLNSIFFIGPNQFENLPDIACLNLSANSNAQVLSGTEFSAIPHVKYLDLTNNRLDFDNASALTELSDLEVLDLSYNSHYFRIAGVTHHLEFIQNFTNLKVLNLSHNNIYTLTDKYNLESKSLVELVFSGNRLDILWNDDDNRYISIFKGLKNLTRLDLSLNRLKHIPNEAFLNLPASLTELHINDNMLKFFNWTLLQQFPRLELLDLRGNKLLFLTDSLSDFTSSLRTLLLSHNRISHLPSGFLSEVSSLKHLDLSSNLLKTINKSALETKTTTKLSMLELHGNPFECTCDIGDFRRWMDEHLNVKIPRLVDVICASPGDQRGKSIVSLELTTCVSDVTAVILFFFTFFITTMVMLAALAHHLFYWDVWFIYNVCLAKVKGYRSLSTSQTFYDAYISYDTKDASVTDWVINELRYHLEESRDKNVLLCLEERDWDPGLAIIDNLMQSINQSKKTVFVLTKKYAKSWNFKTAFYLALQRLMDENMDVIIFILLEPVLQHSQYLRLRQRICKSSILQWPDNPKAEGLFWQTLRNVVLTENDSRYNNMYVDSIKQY
How it was run: (§1)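 Agonists used: gardiquimod 7.5 μM (TLR7), R848 15.9 μM (TLR8), ODN2006 5 nM (TLR9), added after 30 min room-temperature compound pre-treatment (0.05 nM–50 μM) of receptor-overexpressing HEK-Blue cells. SEAP reporter (NF-κB/AP-1 driven) read after 22 h at 37 °C; inhibition scaled between agonist+DMSO and reference-inhibitor wells.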

[2] = target: T2, human TLR9 (Homo sapiens, UniProt Q9NR96); assay: TLR9 inhibition reporter assay (HEK-Blue SEAP reporter); settings: HEK-Blue cells overexpressing human TLR9; ODN2006 5 nM; 22 hour incubation
T2 construct: host or cells: HEK-Blue cells
T2 sequence (Q9NR96 26-1032): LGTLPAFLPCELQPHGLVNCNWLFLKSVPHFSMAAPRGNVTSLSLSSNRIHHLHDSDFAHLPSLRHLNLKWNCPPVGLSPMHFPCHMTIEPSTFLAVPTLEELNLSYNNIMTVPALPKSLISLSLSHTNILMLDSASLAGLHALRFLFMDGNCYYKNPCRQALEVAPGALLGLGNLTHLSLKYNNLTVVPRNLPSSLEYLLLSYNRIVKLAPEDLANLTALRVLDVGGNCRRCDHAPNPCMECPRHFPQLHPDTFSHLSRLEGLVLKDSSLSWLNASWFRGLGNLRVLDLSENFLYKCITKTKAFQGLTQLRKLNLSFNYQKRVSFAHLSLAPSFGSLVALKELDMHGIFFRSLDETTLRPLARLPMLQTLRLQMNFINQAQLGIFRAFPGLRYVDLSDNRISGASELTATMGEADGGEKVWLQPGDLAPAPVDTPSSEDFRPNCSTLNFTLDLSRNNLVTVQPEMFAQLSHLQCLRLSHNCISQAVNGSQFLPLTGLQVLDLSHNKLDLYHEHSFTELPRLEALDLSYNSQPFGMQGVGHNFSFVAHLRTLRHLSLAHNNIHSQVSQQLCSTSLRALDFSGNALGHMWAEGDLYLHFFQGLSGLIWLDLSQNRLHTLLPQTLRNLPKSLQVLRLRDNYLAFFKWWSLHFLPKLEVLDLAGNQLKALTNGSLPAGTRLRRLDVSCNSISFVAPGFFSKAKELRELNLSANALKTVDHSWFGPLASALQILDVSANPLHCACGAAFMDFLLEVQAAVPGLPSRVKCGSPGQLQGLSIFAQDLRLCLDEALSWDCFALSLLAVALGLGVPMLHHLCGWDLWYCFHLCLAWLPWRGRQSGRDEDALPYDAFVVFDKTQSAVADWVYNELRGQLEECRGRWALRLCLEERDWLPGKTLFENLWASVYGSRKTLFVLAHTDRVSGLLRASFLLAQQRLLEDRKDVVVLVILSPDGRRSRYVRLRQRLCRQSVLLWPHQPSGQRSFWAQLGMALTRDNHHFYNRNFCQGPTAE
How it was run: as §1

[3] = target: T3, human TLR7 (Homo sapiens, UniProt Q9NYK1); assay: TLR7 inhibition reporter assay (HEK-Blue SEAP reporter); settings: HEK-Blue cells overexpressing human TLR7; gardiquimod 7.5 μM; 22 hour incubation
T3 construct: host or cells: HEK-Blue cells
T3 sequence (Q9NYK1 27-1049): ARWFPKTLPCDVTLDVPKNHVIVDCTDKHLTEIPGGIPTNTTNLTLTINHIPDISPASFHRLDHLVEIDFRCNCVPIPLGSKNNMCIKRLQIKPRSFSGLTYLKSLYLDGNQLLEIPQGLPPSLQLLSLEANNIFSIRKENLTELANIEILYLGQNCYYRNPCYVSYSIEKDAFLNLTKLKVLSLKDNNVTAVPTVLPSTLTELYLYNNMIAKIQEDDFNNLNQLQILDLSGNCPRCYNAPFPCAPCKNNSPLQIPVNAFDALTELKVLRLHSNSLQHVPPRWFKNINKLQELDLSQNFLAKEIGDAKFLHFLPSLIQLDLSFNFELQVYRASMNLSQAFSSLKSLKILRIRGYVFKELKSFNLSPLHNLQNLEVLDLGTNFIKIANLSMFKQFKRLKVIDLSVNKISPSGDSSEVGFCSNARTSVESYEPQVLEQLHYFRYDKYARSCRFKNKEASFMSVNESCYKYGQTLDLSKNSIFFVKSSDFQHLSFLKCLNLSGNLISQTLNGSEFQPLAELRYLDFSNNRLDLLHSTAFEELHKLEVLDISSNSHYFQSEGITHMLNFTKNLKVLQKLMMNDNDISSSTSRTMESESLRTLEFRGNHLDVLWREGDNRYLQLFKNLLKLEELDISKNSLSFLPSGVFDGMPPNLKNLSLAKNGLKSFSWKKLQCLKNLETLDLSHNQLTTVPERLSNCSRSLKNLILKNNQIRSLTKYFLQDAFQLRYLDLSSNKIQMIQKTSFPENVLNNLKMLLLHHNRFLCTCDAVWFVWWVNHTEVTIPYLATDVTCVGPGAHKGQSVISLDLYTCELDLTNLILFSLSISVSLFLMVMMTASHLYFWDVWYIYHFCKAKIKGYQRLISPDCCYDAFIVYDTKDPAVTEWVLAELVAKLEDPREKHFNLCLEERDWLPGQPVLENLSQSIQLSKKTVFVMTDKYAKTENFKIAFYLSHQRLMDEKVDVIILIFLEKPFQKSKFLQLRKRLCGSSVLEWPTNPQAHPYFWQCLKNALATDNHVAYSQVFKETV
How it was run: as §1

Compound | IC50 [1] | IC50 [2] | IC50 [3]
COc1ccc(-c2[nH]c3ccc(NC4CCC(N5CCN(C6CCN(C)CC6)CC5)CC4)cc3c2C(C)C)cc1OC (stereo not drawn) [Example 61, 2-(3,4-dimethoxyphenyl)-3-isopropyl-N-(4-(4-(1-methylpiperidin-4-yl)piperazin-1-yl)cyclohexyl)-1H-indol-5-amine] | 174 nM | 555 nM | 144 nM
COc1ccc(-c2[nH]c3ccc(NC4CCC(N5CCN(C6CCN(C)CC6)CC5)CC4)cc3c2C(C)C)cc1OC (stereo not drawn) [Example 62, 2-(3,4-dimethoxyphenyl)-3-isopropyl-N-(4-(4-(1-methylpiperidin-4-yl)piperazin-1-yl)cyclohexyl)-1H-indol-5-amine] | 212 nM | 323 nM | 211 nM
COc1ccc(-c2[nH]c3ccc(N4CCN(C5CC(C)(C)NC(C)(C)C5)CC4)cc3c2C(C)C)cc1OC [Example 68, 2-(3,4-dimethoxyphenyl)-3-isopropyl-5-(4-(2,2,6,6-tetramethyl-112-piperidin-4-yl)piperazin-1-yl)-1H-indole] | 11 nM | 676 nM | 34 nM
CCc1c(-c2ccc(OC)c(OC)c2)[nH]c2cc(C(C)C)c(N3CCN(C4CCN(C(C)C)CC4)CC3)cc12 [Example 69, 2-(3,4-dimethoxyphenyl)-3-ethyl-6-isopropyl-5-(4-(1-isopropylpiperidin-4-yl)piperazin-1-yl)-1H-indole] | 14300 nM | 2610 nM | 1160 nM
CNCCNC1CCN(c2ccc3[nH]c(-c4ccc(OC)c(OC)c4)c(C(C)C)c3c2)CC1 [Example 72, N1-(1-(2-(3,4-dimethoxyphenyl)-3-isopropyl-1H-indol-5-yl)piperidin-4-yl)-N2-methylethane-1,2-diamine] | 2.8 nM | 1390 nM | 15 nM
COc1ccc(-c2[nH]c3ccc(N4CCC(N5CCOCC5)CC4)cc3c2C(C)C)cc1OC [Example 74, 4-(1-(2-(3,4-dimethoxyphenyl)-3-isopropyl-1H-indol-5-yl)piperidin-4-yl)morpholine] | 15 nM | 5210 nM | 62 nM
COc1ccc(-c2[nH]c3ccc(N4CCC(NCCCN(C)C)CC4)cc3c2C(C)C)cc1OC [Example 77, N1-(1-(2-(3,4-dimethoxyphenyl)-3-isopropyl-H-indol-5-yl)piperidin-4-yl)-N3,N3-dimethylpropane-1,3-diamine] | 9.6 nM | 1980 nM | 61 nM
CCN1CCN(C2CCN(c3ccc4[nH]c(-c5ccc(OC)c(OC)c5)c(C(C)C)c4c3)CC2)CC1 [Example 78, 2-(3,4-dimethoxyphenyl)-5-(4-(4-ethylpiperazin-1-yl)piperidin-1-yl)-3-isopropyl-1H-indole] | 14 nM | 929 nM | 50 nM
COc1ccc(-c2[nH]c3ccc(N4CCC(N5CC(C)OC(C)C5)CC4)cc3c2C(C)C)cc1OC (stereo not drawn) [Example 80, 4-(1-(2-(3,4-dimethoxyphenyl)-3-isopropyl-H-indol-5-yl)piperidin-4-yl)-2,6-dimethylmorpholine] | 19 nM | 5790 nM | 130 nM
COc1ccc(-c2[nH]c3ccc(N4CCC(N(C)CCCN(C)C)CC4)cc3c2C(C)C)cc1OC [Example 81, N1-(1-(2-(3,4-dimethoxyphenyl)-3-isopropyl-1H-indol-5-yl)piperidin-4-yl)-N1,N3,N3-trimethylpropane-1,3-diamine] | 10 nM | 1050 nM | 44 nM

Results, then the compound that gave them:

IC50 [1] | IC50 [2] | IC50 [3] | Compound
3.1 nM | 1700 nM | 130 nM | COc1ccc(-c2[nH]c3ccc(N4CCC(N5CCCC5)CC4)cc3c2C(C)C)cc1OC [Example 70, 2-(3,4-dimethoxyphenyl)-3-isopropyl-5-(4-(pyrrolidin-1-yl)piperidin-1-yl)-1H-indole]
65 nM | 2110 nM | 63 nM | COc1ccc(-c2[nH]c3ccc(N4CCC(N5CCNCC5)CC4)cc3c2C(C)C)cc1OC [Example 73, 2-(3,4-dimethoxyphenyl)-3-isopropyl-5-(4-(piperazin-1-yl)piperidin-1-yl)-1H-indole]
7.8 nM | 782 nM | 18 nM | COc1ccc(-c2[nH]c3ccc(N4CCC(NCCCN(C)C)CC4)cc3c2C(C)C)cc1OC [Example 76, N1-(1-(2-(3,4-dimethoxyphenyl)-3-isopropyl-H-indol-5-yl)piperidin-4-yl)-N3,N3-dimethylpropane-1,3-diamine]
4.7 nM | 640 nM | 9.8 nM | COc1ccc(-c2[nH]c3ccc(N4CCC(NC5CCN(C)CC5)CC4)cc3c2C(C)C)cc1OC [Example 79, 1-(2-(3,4-dimethoxyphenyl)-3-isopropyl-1H-indol-5-yl)-N-(1-methylpiperidin-4-yl)piperidin-4-amine]
4.7 nM | 999 nM | 16 nM | CCN1CCCN(C2CCN(c3ccc4[nH]c(-c5ccc(OC)c(OC)c5)c(C(C)C)c4c3)CC2)CC1 [Example 84, 2-(3,4-dimethoxyphenyl)-5-(4-(4-ethyl-1,4-diazepan-1-yl)piperidin-1-yl)-3-isopropyl-1H-indole]
